This note sets out measurements from patent US9290528B1, “Light-activated compounds” (University of Kentucky Research Foundation, priority 2013, dated 2016).

Data set [1] concerns pUC19 plasmid. The experiment in a line: Glutathione assay: pUC19 crosslinking with increasing GSH. Format: biochemical. The settings on record: 30 μM compound, 0.01-40 mM GSH; 4 light-activated. As for the experimental part: The concentrations of GSH were 0.01, 0.1, 1, 10, 40 mM, giving a molar ratio between the compounds and glutathione of a) 1:0.3, b) 1:3.3, c) 1:33, d) 1:333, e) 1:1333. […] Control reactions with pUC19 in the presence and absence of GSH were carried out for 12 hrs in the dark with 25 μg/ml plasmid and 40 mM GSH in 10 mM phosphate buffer, pH 7.5. The plasmid was resolved on a 1% agarose gel as described above.
(§1) The photoactivated DNA crosslinking Ru(bpy)2 species retained its ability to damage DNA, even at higher GSH concentrations.

A short description of data set [2]: Interaction of prodrug compounds with GSH by UV/Vis spectroscopy. It is filed as physicochemical. The settings on record: period of days.
Text: as §1

In data set [3] the test system is HL60 promyelocytic leukemia cell line. Briefly: Cell survival assay, HL60. Format: cell-based. The method, then:
(§2) The HL60 promyelocytic leukemia cell line was obtained from ATCC and cultured in IMDM media (Invitrogen; Carlsbad, Calif.) supplemented with 10% serum supreme (Lonza; Basel, Switzerland) and penicillin/streptomycin at 37° C. with 5% CO2. The A549 cell line was donated and cultured in DMEM supplemented with glutamax, 10% serum supreme, and penicillin/streptomycin at 37° C. with 5% CO2. Cells were plated in Optimem (Life Technologies; Carlsbad, Calif.) supplemented with 1% serum supreme and penicillin/streptomycin at 30,000 cells per well in Costar 96 well flat bottom clear tissue culture treated plates for HL60 and 1500 cells/well for A549. […] The cells were then incubated for 72 hours followed by the addition of Cell Titer Glo (Promega; Madison, Wis.) to determine viability. Dark controls were run in parallel. The resulting luminescence was measured using the SpectraFluor Plus Plate Reader (Tecan). Data were fit to an equation for a sigmoidal dose response using the equation below, where yi and yf are the initial and final signal intensities.
(§3) Cell cytotoxicity studies were performed in HL60 leukemia cells and A549 lung cancer cells (see FIG. 7 and Table 3). Cells were incubated with compounds for 12 hours in the dark before irradiated with >450 nm light (410 W) for 3 minutes. Dark controls were run in parallel. Cell survival was quantified 72 hours later through the use of an ATP luciferase assay, and confirmed by Trypan Blue staining and manual counting.

The subject of another data set is A549 lung cancer cells. Briefly: Cell survival assay, A549 monolayer. Format: cell-based. As for the experimental part: as §2, §3
The next data set relates to A549 tumor spheroids. Briefly: A549 tumor spheroid cytotoxicity. Format: cell-based. The method, then: A549 cells were seeded at 2,500 cells/well in 1.5% agarose coated 96-well plates. After 7 days the spheroids were dosed with compounds and incubated for 12 hrs. […] Cellular viability was determined 72 hours after light activation for the irradiated samples and at the same time point for the dark samples by measuring ATP concentration with CellTiter Glo (Promega). Data were fit to an equation for sigmoidal dose response shown above using the Prism software package.
3D tumor spheroids were used to test the compounds. Spheroids provide a system that approximates the complexity of in vivo tumors. These spheroids mimic the pathophysiology of tumors, including hypoxic/necrotic regions, changes in cell shape, high proportions of quiescent cells, alterations in gene expression profiles, and diminished permeability to drugs. […] To characterize the light-activated ruthenium compounds under more challenging and biologically relevant conditions, efficacy was assessed in a 3D tumor model by forming tumor spheroids with A549 cells.
Spheroids of about 600 μm in diameter were dosed with compounds and then either kept in the dark or irradiated with >450 nm light for 3 minutes.

The test system of data set [4] is A549 cells. Briefly: Glutathione assay in A549 cells (cytoprotection). It is filed as cell-based. The settings on record: co-dosed with increasing GSH.
Description: A549 cells were plated in Optimem supplemented with 1% serum supreme and penicillin/streptomycin in 96 well plates as described above. […] Cellular viability was determined by measuring ATP concentration with CellTiter Glo (Promega). Data were fit to an equation for sigmoidal dose response shown above using the Prism software package.
Data set [5] has as its system HL60 leukemia cells and A549 lung cancer cells. Briefly: Cell cytotoxicity studies, summary over HL60 and A549. Format: cell-based. As for the experimental part:
as §2, §3

Data set [6] can be described thus: Light and dark cytotoxicity of exemplary compounds (Table 6). It is filed as cell-based. Conditions: for IC50: cell line not stated. An excerpt: This Example describes additional specific embodiments the presently-disclosed subject matter. […] The methods for making and characterizing the compounds are based on the methodologies described in the previous examples.

The test system of data set [7] is pUC19 plasmid. The experiment in a line: Plasmid-compound gel analysis (Example 2). Conditions: visible light 200 W, 1 hour.
Description: Plasmid-compound gel analysis: Plasmid pUC19 was obtained from Bio-Rad (Hercules, Calif.), transformed into DH5a cells and positive transformants were selected by colony formation on Ampicillin LB-Agar plates. Colonies were grown in LB and plasmid isolated using a Maxi-prep plasmid isolation kit (Qiagen; Velno, Netherlands). Plasmid amounts were quantified by UV/VIS. For dosing studies, 40 μg/ml of plasmid was incubated with compound dosed from 0 to 500 μM in 96 well plates. They were incubated for 30 min prior to light activation for 1 hour using a Dell 1410x 200 W projector fitted with a >450 nm cut-off filter. Dark controls were performed by keeping the DNA:compound mixtures in the dark. The samples were incubated overnight after light activation before gel analysis; the dark samples were also incubated for the same time period. Linear plasmid and relaxed circle plasmid were generated and run side-by-side with compound treated samples. Linear plasmid was generated using the EcoRI restriction enzyme (New England BioLabs; Ipswich, Mass.) following the manufacturers protocol. Single cut, relaxed circle, plasmid was generated using the copper phenanthroline reaction. Reaction was carried out in 10 mM phosphate buffer pH 7.5, with 40 μg/ml plasmid, 1 mM DTT, 1 mM hydrogen peroxide, and 5 μM copper phenanthroline for 30 min at 25° C. The addition of DTT reduced the copper phenanthroline to the +1 charge state, followed by reaction with peroxide created the damage to the DNA. Samples were resolved on a 1% non-EB (ethidium bromide) agarose gel followed by 40 minutes of staining with 0.5 μg/ml EB in Tris-Acetate buffer followed by 40 minutes of destaining in Tris-Acetate before imaging.
The nature of data set [8]: Photoejection followed by UV/Vis absorption spectroscopy (Example 2). The settings on record: >450 nm light.
Description: Absorption spectra were obtained on an Agilent 8453 Diode Array spectrophotometer (Santa Clara, Calif.). Photoexpulsion experiments were performed using a Dell 200 Watt 1410X projector (for in vitro photoejection experiments) or 410 Watt 955 Model 900 AJH projector (for cell cytotoxicity studies) (Dell Inc.; Round Rock, Tex.) fitted with an Edmund Optics filter (NT43-935) (Barrington, N.J.). UV/Vis experiments were performed in a 1-cm pathlength quartz cuvette located 18 inches from the projector. Kinetics were fit using the equation for a single exponential with the Prism software package.
A further data set in a line: Log P. Format: physicochemical.
Another data set concerns pUC19 plasmid DNA. Briefly: pUC19 plasmid DNA damage by gel electrophoresis (Example 4). It is filed as biochemical. Conditions: for DNA damage when exposed to light: 40 J/cm^2 >400 nm light. As for the experimental part:
Their DNA damaging properties were assessed with pUC19 plasmid DNA using gel electrophoresis. […] Samples were then incubated for 24 hours at room temperature protected from light. Controls were prepared to simulate single and double strand DNA breaks, and the DNA samples resolved on agarose gels. Samples were resolved using 1% agarose gels prepared in tris-acetate (TA) buffer. Each lane was loaded with 0.3 μg of pUC19 and the samples run for 90 minutes at […]. The gels were stained with 500 ng/mL ethidium bromide in TA buffer at room temperature for 40 minutes. […] In contrast, 10 is a more hydrophilic molecule, and the negatively charged sulfonate functional groups were anticipated to cause electrostatic repulsions between the complex and the negatively charged backbone of the DNA. DNA precipitation or smearing was not observed with up to 500 μM of […] (FIG. 12B).

For data set [9], the system named is HL60 cells. Briefly: Cell viability as a function of time. Format: cell-based, human. The settings on record: irradiated; for cell viability: 2 hours.
For data set [10], the system named is HL60 cells. Briefly: Mitochondrial membrane potential (TMRE). Format: cell-based, human. Conditions: for effect on mitochondrial potential: dark and irradiated. An excerpt: FIGS. 14A to 14D includes charts showing mitochondrial potential and cell viability of HL60 cells as a function of time for (FIG. 14A) 9, dark, (FIG. 14B) 9, irradiated; (FIG. 14C) 10, dark; (FIG. 14D) 10, irradiated. TMRE was used to quantify membrane potential; values are relative to a no-compound control value of 100.
TMRE is a cationic dye that accumulates in active motochondria as a result of the negative membrane potential (Δψm).

For data set [11], the system named is A549 cells. Briefly: Uptake and subcellular localization by Apoptome microscopy. Format: cell-based, human. The method, then:
The emission of 9 and 10 was measured in A549 cells using an Apoptome microscope. The relative rates of uptake of each of the complexes were analyzed as a function of time, and both 9 and 10 were visible inside cells as early as 2 hours after compound addition, consistent with the flow data and the ICP-OES results. Images were taken at 2, 8, 18 and 24 hours, and intracellular levels of both complexes appeared to plateau around 8 hours.
Differences in the intracellular localization of 9 and 10 were evaluated by determining colocalization of luminescence of the compound and fluorescent markers of organelles in A549 cells. Overlap in signals between the compounds, cellular nucleus, mitochondria and lysosome was measured over a 24 hour period.

Data set [12] relates to HL60 cells. Briefly: Western blot of PARP and caspase 3 cleavage. It is filed as cell-based, human. The settings on record: for 55 kDa PARP fragment (marker for necrosis): protected from light and irradiated. The method, then: Given the different cellular localization properties and time profiles for cell death induced by 9 and 10, the mechanism of cell death was investigated. Indicators of apoptotic cell death (activation of PARP and caspase 3 through proteolysis) were determined in HL60 cells treated with either 9 or 10 (FIGS. 15A and 15B).
The generation of an alternate 55 kDa PARP fragment was determined by immunoblot as a marker for necrosis with 10% (v/v) ethanol used as a control that induces necrosis.

Data set [13] deals with HL60 cells. Briefly: Genomic DNA laddering by gel electrophoresis. Format: cell-based, human. The settings on record: dark / not irradiated. An excerpt:
To further analyze the mechanisms of cell death induced by 9 and 10, the degradation pattern of genomic DNA was investigated. DNA laddering was observed as a result of DNA fragmentation stemming from the execution phase of apoptosis. In contrast, necrotic cell death lacked this characteristic laddering effect, allowing differentiation between these two mechanisms. […] This laddering was absent in the cells treated with ethanol and compounds 9 and 10 in the dark. […] In contrast, given the cytotoxicity of 9 in the dark and the presence of the 55 kDa PARP fragment, it appears that necrotic cell death is one pathway for […]. For compound 10 the absence of DNA laddering may be a result of the lack of cytotoxicity of the negatively charged compound.

The subject of data set [14] is HL60 cells.
For data set [15], the system named is HL60 cells. This is another data set of the same source.

“And” between values parts separate entries of the source, which are not always exact repeats. Equal values may be shown once. Read-outs that look alike come from different tables or passages of the source. Where only a bound is given, the exact number is not on record here.

The term IC50 denotes the concentration that gives 50% inhibition. One may read the Log P as the decadic logarithm of the partition coefficient of the neutral form, usually between octanol and water. As a reminder, the cell viability is a read-out of living cells in per cent, often relative to untreated cells. A lower cell viability goes with a greater loss of cells.

For `Cc1cccc(-c2cccc(C)n2)n1.F[P-](F)(F)(F)(F)F.F[P-](F)(F)(F)(F)F.[Ru+2].c1ccc(-c2ccccn2)nc1.c1ccc(-c2ccccn2)nc1` [Compound 4, Ru(bpy)2-6,6′dmbpy], the “plasmid DNA crosslinking in presence of increasing GSH” value in the data set on pUC19 plasmid [1] was “greater DNA binding than cisplatin”. Moreover, the “interaction with GSH” value in [2] is “did not interact with GSH”. The IC50 in data set [3] (3 min >450 nm light, 72 hours, read-out: Light IC50 HL60) was 1.6 µM; in data set [3] (dark, read-out: Dark IC50 HL60) it was more than 300 µM; in the data set with A549 lung cancer cells (3 min >450 nm light, 72 hours, read-out: Light IC50 A549) it was 1.1 µM; in the data set on A549 lung cancer cells (dark, read-out: Dark IC50 A549) it was 150 µM; with A549 tumor spheroids (3 min >450 nm light, 72 hours, read-out: Light IC50 A549 spheroid), 21 µM and 21.3 µM; in the data set with A549 tumor spheroids (dark, read-out: Dark IC50 A549 spheroid), more than 300 µM. Further, the figures for the IC50 in data set [6] (read-out: Dark IC50) and in [6] (read-out: Light IC50) were 300 µM and 1.5 µM, respectively. Besides, the “Phototoxicity Index, PI HL60” value in data set [3] (ratio of dark and light IC50) is recorded as more than 188. For the same compound, the “Phototoxicity Index, PI A549” value in the data set on A549 lung cancer cells (ratio of dark and light IC50) is 136. Also, in the data set with A549 tumor spheroids (ratio of spheroid and monolayer culture IC50), the “MCR Index” value amounted to 19.4. For the same compound, the “effect of GSH on cytotoxicity” value in the data set with A549 cells [4] was “not”. Besides, in data set [5] (>450 nm light 3 minutes vs dark), the “activity light versus dark” value was “light-triggered toxicity”. Also, the “IC50 values after irradiation” value in [5] (after irradiation) was “single μM IC50 values”. In addition, the “dark toxicity (none observed up to this concentration)” value in data set [5] (dark) was more than 300 µM. Further, the “Phototoxicity Index” value in [6] (dark IC50/light IC50) is given as 200. Further, the “type of DNA damage upon visible light” value in the data set on pUC19 plasmid [7] is listed as “DNA photobinding”. In [8], the “reaction kinetics of 4 relative to 5” value came out at 30 fold.
In the case of `O=S(=O)([O-])c1ccc(-c2ccnc3c2ccc2c(-c4ccc(S(=O)(=O)[O-])cc4)ccnc23)cc1.O=S(=O)([O-])c1ccc(-c2ccnc3c2ccc2c(-c4ccc(S(=O)(=O)[O-])cc4)ccnc23)cc1.O=S(=O)([O-])c1ccc(-c2ccnc3c2ccc2c(-c4ccc(S(=O)(=O)[O-])cc4)ccnc23)cc1.[Ru+2]` [Compound 10, Ru(bathophenanthorlinedisulfonate)3], the “Log P” value in the data set “Log P” is given as −2.2 ± 0.12. The “DNA damage when exposed to light” value in the data set with pUC19 plasmid DNA was “induced single strand DNA breaks”. This compound gave a cell viability with HL60 cells [9] of 70±12%. In addition, the viable cells remaining in the data set on HL60 cells [9] (24 hours) is 70% and 59±4%; in the data set with HL60 cells [9] (48 hours), 55%. Further, the “effect on mitochondrial potential” value with HL60 cells [10] was “did not significantly reduce the mitochondrial potential”. Moreover, the “time at which intracellular levels plateau” value in the data set on A549 cells [11] is on record as “around 8 hours”. Also, the “PARP and caspase 3 activation” value in the data set on HL60 cells [12] (absence of light) is on record as “did not display PARP or caspase 3 cleavage”; in the data set on HL60 cells [12] (irradiated), “induced PARP as early as 2 hours”. The “55 kDa PARP fragment (marker for necrosis)” value in the data set with HL60 cells [12] was “lower level of the 55 kDa PARP fragment”. For the same compound, the “genomic DNA laddering” value with HL60 cells [13] is “absent”. Besides, in the data set with HL60 cells [14], the “increase of average emission of cells between 2 and 24 hours” value is on record as 4 fold. Also, the “amount within the cells after irradiation” value in the data set on HL60 cells [15] was determined as 1.6%.
As to Ru(bathophenanthroline)3 [Compound 9], the “Log P” value in “Log P” stood at 1.8 ± 0.02. Also, in the data set with pUC19 plasmid DNA, the “DNA damage when exposed to light” value is reported as “induced single strand DNA breaks”. Moreover, the “concentrations at which precipitation of the complex with the DNA was observed” value in the data set on pUC19 plasmid DNA (light and dark) is “above 31.3 μM”. Further, the “time to cell death after irradiation” value with HL60 cells [9] is not above 2 h. For the same compound, the cell viability result with HL60 cells [9] was “about 0%”. In addition, in the data set on HL60 cells [10], the “effect on mitochondrial potential” value is “rapid and complete depolarization of mitochondria”. The mitochondrial function result was “completely impaired” in the data set on HL60 cells [10] (dark, 2 hours post treatment) and “about 0%” in the data set on HL60 cells [10] (within 2 hours of irradiation). Besides, the “time at which intracellular levels plateau” value in the data set with A549 cells [11] is given as “around 8 hours”. For the same compound, the “PARP and caspase 3 activation” value with HL60 cells [12] (absence of light) was “after 18 and 24 hours and to a lesser degree”; in the data set with HL60 cells [12] (irradiated) it was “induced the proteolytic activation of both PARP and caspase 3 within 2 hours of irradiation”. Moreover, the “55 kDa PARP fragment (marker for necrosis)” value in the data set on HL60 cells [12] is reported as “produced this fragment at significant levels”. Also, in the data set on HL60 cells [13], the “genomic DNA laddering” value is “absent”.
